Experimental findings from patent publication US9650339B2, “Inhibitors of histone demethylases” (Gilead Sciences, Inc., priority 2013, dated 2017) are described below.

One assay addresses T1, KDM2B (FBXL10) (Homo sapiens, UniProt Q8NHM5).
T1 sequence (Q8NHM5 1-650): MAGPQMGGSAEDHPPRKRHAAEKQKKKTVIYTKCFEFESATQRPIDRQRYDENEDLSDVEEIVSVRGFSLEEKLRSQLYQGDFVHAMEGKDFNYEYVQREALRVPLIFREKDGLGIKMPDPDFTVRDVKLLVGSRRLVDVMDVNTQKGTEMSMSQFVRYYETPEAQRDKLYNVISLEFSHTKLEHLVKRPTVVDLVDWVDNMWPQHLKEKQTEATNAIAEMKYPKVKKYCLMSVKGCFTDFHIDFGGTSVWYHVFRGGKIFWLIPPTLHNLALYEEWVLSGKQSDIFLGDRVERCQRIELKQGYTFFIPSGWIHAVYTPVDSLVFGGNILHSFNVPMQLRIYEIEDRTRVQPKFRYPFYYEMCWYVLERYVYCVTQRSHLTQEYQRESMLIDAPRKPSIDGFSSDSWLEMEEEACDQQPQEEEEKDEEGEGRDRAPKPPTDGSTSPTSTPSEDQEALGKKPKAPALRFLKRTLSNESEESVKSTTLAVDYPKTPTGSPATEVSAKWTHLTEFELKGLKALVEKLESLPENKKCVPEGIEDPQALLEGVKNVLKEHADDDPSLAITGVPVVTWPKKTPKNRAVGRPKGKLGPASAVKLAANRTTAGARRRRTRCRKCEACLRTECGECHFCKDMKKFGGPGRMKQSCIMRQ
Description: Histone lysine demethylase AlphaLISA assay, KDM2B. It is filed as biochemical. The conditions noted are these: read-out: KDM2B HDME Inhibition IC50. The gist of the method:
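Biotinylated methylated H3 peptides (K9, K4, K27 or K36 marks) served as substrate, with 25 μM L-Asc and 10 μM α-KG. Enzymes were preincubated 10 min, then exposed to compounds (3% DMSO solutions) 10 min; product detected by AlphaLISA acceptor and streptavidin donor beads at room temperature in dark.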
A general note: Bead proximity is the source of the signal in Alpha formats.

A further assay has as its target T2, KDM3B (JMJD1B) (Homo sapiens, UniProt Q7LBC6).
T2 construct: 842-1761; host or cells: Bac (baculovirus system)
T2 sequence (Q7LBC6 842-1761): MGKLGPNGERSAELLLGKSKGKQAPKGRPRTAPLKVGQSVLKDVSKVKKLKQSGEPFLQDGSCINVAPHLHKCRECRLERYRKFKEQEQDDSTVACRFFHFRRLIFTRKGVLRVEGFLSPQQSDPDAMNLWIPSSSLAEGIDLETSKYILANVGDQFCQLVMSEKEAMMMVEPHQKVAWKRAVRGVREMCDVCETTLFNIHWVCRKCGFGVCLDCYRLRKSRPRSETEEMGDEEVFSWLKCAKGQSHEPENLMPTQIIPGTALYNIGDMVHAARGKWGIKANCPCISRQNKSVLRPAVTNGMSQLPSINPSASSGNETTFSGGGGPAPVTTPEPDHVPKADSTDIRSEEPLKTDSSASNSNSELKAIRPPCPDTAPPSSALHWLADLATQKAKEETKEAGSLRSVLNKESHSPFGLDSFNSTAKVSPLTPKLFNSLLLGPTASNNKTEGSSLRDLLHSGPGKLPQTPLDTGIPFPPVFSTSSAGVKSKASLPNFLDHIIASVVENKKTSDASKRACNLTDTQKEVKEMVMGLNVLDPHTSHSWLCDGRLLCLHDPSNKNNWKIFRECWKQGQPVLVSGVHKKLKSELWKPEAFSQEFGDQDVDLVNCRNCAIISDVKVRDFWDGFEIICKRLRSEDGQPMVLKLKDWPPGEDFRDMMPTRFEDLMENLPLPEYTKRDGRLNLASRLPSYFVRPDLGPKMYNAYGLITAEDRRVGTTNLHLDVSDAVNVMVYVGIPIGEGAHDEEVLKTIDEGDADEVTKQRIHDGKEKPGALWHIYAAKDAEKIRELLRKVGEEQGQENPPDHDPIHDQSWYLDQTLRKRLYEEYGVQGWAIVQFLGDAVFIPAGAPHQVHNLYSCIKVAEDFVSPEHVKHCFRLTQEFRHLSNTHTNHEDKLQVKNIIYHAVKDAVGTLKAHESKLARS
Nature of the assay: Histone lysine demethylase AlphaLISA assay, KDM3B. The format is biochemical. The conditions noted are these: read-out: KDM3B HDME Inhibition IC50. How it is done: Assays are performed analogously to the protocol described by PerkinElmer (Roy et al. PerkinElmer Technical Note: AlphaLISA #12, April 2011)
Enzymes are dissolved in enzyme buffer and incubated for 10 min before being added to 3% DMSO solutions of compounds in enzyme buffer. Incubated for another 10 minutes, before substrate solution is added and the reaction mixture is incubated at room temperature. 10 μL acceptor beads, suspended in Epigenetic Buffer (Perkin Elmer AL008) from stock, are added and the suspension is incubated in the dark at room temperature, before a suspension of streptavidin donor beads (Perkin Elmer 6760002) in Epigenetic Buffer is added. After incubation at room temperature in the dark the plates are read. […]
BK9M2: Biotin-ARTKQTAR(KMe2)STGGKAPRKQ-NH2 (AnaSpec 64359) […]
Substrate Solution: Substrate, 25 μM L-Asc, and 10 μM α-KG in Buffer A.

As for `CCN1CCCC1CNC(=O)CNCc1cc(/C=N/C2CC2)ccn1` (stereo not shown) [Compound 51, 2-[({4-[N-cyclopropyl-carboximidoyl]-pyridin-2-yl}methyl)-amino]-N-[(1-ethylpyrrolidin-2-yl)methyl]acetamide], the IC50 on KDM2B (FBXL10) and at KDM3B (JMJD1B) was over 2500 nM each time.
Take `CCN(CCN(C)C)C(=O)CNCc1cc(/C=N/CCC2CCCCC2)ccn1` [Compound 63, 2-[({4-[[(2-cydohexylethyl)-imino]methyl]pyridin-2-yl}methyl)amino]-N-[2-(dimethylamino)-ethyl]-N-ethylacetamide]: the IC50 at KDM2B (FBXL10) is 250 to 2500 nM; on KDM3B (JMJD1B) it was over 2500 nM.
For `CN(CCCn1cccn1)C(=O)CNCc1cc(/C=N/C2CC2)ccn1` [Compound 52, 2-[({4-[N-cyclopropyl-carboximidoyl]-pyridin-2-yl}methyl)amino]-N-methyl-N-[3-(1H-pyrazol-1-yl)propyl]acetamide] the same measures were 250 to 2500 nM and over 2500 nM.
In the case of `O=C(CNCc1cc(/C=N/C2CC2)ccn1)N1CCC[C@@H]1CN1CCCC1` [Compound 49, 2-[({4-[N-cyclopropyl-carboximidoyl]pyridin-2-yl}methyl)amino]-1-[(2R)-2-(pyrrolidin-1-ylmethyl)pyrrolidin-1-yl]ethan-1-one], the IC50 at KDM2B (FBXL10) and on KDM3B (JMJD1B) was over 2500 nM each time.
With `CC(C#N)NCc1ccnc(CNCCCN(C)C)c1` (stereo not shown) [Compound 22, 2-({[2-({[3-(dimethylamino)propyl]-amino}methyl)pyridin-4-yl]methyl}amino)-propanenitrile], the IC50 at KDM2B (FBXL10) and on KDM3B (JMJD1B) was over 2500 nM throughout.
Regarding `CN(C)C(=O)CNCc1cc(/C=N/CCCc2ccccc2)ccn1` [Compound 34, N,N-dimethyl-2-[({4-[[(3-phenylpropyl)imino]-methyl]pyridin-2-yl}methyl)amino]-acetamide], the IC50 on KDM2B (FBXL10) and on KDM3B (JMJD1B) was over 2500 nM in each case.
For `O=Cc1ccnc(CNCCCN2CCCC2)c1` [Compound 111, 2-({[3-(pyrrolidin-1-yl)propyl]amino}-methyl)pyridine-4-carbaldehyde], the IC50 on KDM2B (FBXL10) and on KDM3B (JMJD1B) was over 2500 nM throughout.
For the compound `c1ccc(CN2CCC[C@H]2CNCc2cc(CNCC3CC3)ccn2)cc1` [Compound 16, {[(2S)-1-benzylpyrrolidin-2-yl]methyl}[(4-{[(cyclopropylmethyl)-amino]methyl}pyridin-2-yl)methyl]amine], the IC50 on KDM2B (FBXL10) and on KDM3B (JMJD1B) was over 2500 nM each time.
For `CN(C)CCNCc1cc(C=O)ccn1` [Compound 110, 2-({[2-(dimethylamino)-ethyl]amino}methyl)-pyridine-4-carbaldehyde], the half-maximal inhibitory concentration (IC50) on KDM2B (FBXL10) and on KDM3B (JMJD1B) was over 2500 nM each time.
Consider `CN1CCN(C(=O)CNCc2cc(C=O)ccn2)CC1` [Compound 103, 2-({[2-(4-methylpiperazin-1-yl)-2-oxoethyl]-amino}methyl)-pyridine-4-carbaldehyde], for which the IC50 at KDM2B (FBXL10) and on KDM3B (JMJD1B) was over 2500 nM throughout.
As for `CCN(CCN(C)C)C(=O)CNCc1cc(CNC(=O)C(F)(F)F)ccn1` [Compound 25, N-[(2-{[({[2-(dimethylamino)ethyl]-(ethyl)carbamoyl}-methyl)amino]methyl}-pyrtdin-4-yl)methyl]-2,2,2-trifluoroacetamide], the concentration for half-maximal inhibition (IC50) at KDM2B (FBXL10) and on KDM3B (JMJD1B) was over 2500 nM in each case.
As to `CN(C)CCCCCNCc1cc(CN)ccn1` [Compound 8, [2-({[5-(dimethylamino)pentyl]-amino}methyl)pyridin-4-yl]methanamine], the concentration for half-maximal inhibition (IC50) on KDM2B (FBXL10) and at KDM3B (JMJD1B) was over 2500 nM in each case.
As for `O=Cc1ccnc(CNCC(=O)N2CCC(Cc3ccccc3)CC2)c1` [Compound 106, 2-({[2-(4-benzylpiperidin-1-yl)-2-oxoethyl]-amino}methyl)-pyridine-4-carbaldehyde], the IC50 at KDM2B (FBXL10) and at KDM3B (JMJD1B) was over 2500 nM each time.
For `C(=N/C1CC1)/c1ccnc(CNCCCN2CCCC2)c1` [Compound 42, N-{[2-({[3-(pyrrolidin-1-yl)propyl]amino}-methyl)pyridin-4-yl]methylidene}-cyclopropanamine], the IC50 on KDM2B (FBXL10) and on KDM3B (JMJD1B) was over 2500 nM throughout.
For the compound `CCN(CC)CCCCNC(=O)CNCc1cc(C=O)ccn1` [Compound 112, N-[4-(diethylamino)-butyl]-2-{[(4-formylpyridin-2-yl)methyl]amino}-acetamide], the IC50 at KDM2B (FBXL10) and at KDM3B (JMJD1B) was over 2500 nM throughout.
As to `C(=N\C1CC1)/c1ccnc(CNCCCCN2CCC2)c1` [Compound 44, N-{[2-({[4-(azetidin-1-yl)butyl]amino}methyl)-pyridin-4-yl]methylidene}-cyclopropanamine], the half-maximal inhibitory concentration (IC50) on KDM2B (FBXL10) and on KDM3B (JMJD1B) was over 2500 nM each time.
For `COc1ccccc1CN1CCC(NC(=O)CNCc2cc(CN)ccn2)CC1` [Compound 9, 2-({[4-(aminomethyl)pyridin-2-yl]methyl}amino)-N-{1-[(2-methoxyphenyl)methyl]-piperidin-4-yl}acetamide], the half-maximal inhibitory concentration (IC50) at KDM2B (FBXL10) and at KDM3B (JMJD1B) was over 2500 nM throughout.
As to `CCN(CC)CCCCN(Cc1cc(C=O)ccn1)C(=O)C(F)(F)F` [Compound 115, N-[4-(diethylamino)butyl]-2,2,2-trifluoro-N-[(4-formylpyridin-2-yl)methyl]acetamide], the 50% inhibitory concentration (IC50) on KDM2B (FBXL10) and at KDM3B (JMJD1B) was over 2500 nM each time.
Take `CN(C)C/C=C/CNCc1cc(/C=N/C2CC2)ccn1` [Compound 43, N-{[2-({[(2E)-4-(dimethylamino)but-2-en-1-yl]amino}-methyl)pyridin-4-yl]methylidene}-cyclopropanamine]: the half-inhibitory concentration (IC50) at KDM2B (FBXL10) and on KDM3B (JMJD1B) was over 2500 nM throughout.
For `CN(C)CC1CCC(CNCc2cc(/C=N/C3CC3)ccn2)CC1` (stereo not shown) [Compound 46, N-[(2-{[({4-[(dimethylamino)-methyl]cyclohexyl}-methyl)amino]-methyl}pyridin-4-yl)methylidene]-cyclopropanamine], the IC50 at KDM2B (FBXL10) and at KDM3B (JMJD1B) was over 2500 nM each time.
Turning to `CON=Cc1ccnc(CNCCCN(C)C)c1` [Compound 64, [3-(dimethylamino)-propyl]({4-[(methoxyimino)-methyl]pyridin-2-yl}methyl)amine], the half-maximal inhibitory concentration (IC50) at KDM2B (FBXL10) and at KDM3B (JMJD1B) was over 2500 nM throughout.
As to `CN(CCCNCc1cc(/C=N/C2CC2)ccn1)Cc1ccccc1` [Compound 41, N-({2-[({3-[benzyl(methyl)amino]-propyl}amino)methyl]-pyridin-4-yl}methylidene)-cyclopropanamine], the IC50 at KDM2B (FBXL10) and at KDM3B (JMJD1B) was over 2500 nM in each case.
For `CN1CCC(CNCc2cc(C=O)ccn2)CC1` [Compound 100, 2-({[(1-methyl-piperidin-4-yl)methyl]amino}-methyl)pyridine-4-carbaldehyde], the IC50 at KDM2B (FBXL10) and at KDM3B (JMJD1B) was over 2500 nM each time.

Broadly, the IC50 is the concentration at which inhibition is half-maximal.
